In patent US8697662B2, “Methods for treating Kaposi sarcoma” (PTC Therapeutics, Inc., priority 2009, dated 2014):

What was measured:
[1] = test system: soluble VEGF121 and VEGF165 isoforms; assay: ELISA of soluble VEGF121/165 production in HeLa cells under hypoxia or normoxia; type: cell-based, human
Protocol: (§1) Experimental Design. HeLa (human cervical carcinoma) cell cultures were established under normoxic conditions (21% oxygen). HeLa cells increase VEGF production 4- to 5-fold in response to hypoxia. […] At the completion of treatment, the conditioned media were collected and the VEGF protein levels were assayed in an enzyme-linked immunosorbent assay (ELISA) with primary antibodies that recognize the soluble VEGF121 and VEGF165 isoforms (R & D Systems, Minneapolis, Minn., USA). To ensure that decreases in VEGF concentration were not due to cytotoxicity, cultures were assayed using a standard assay ([…]-GLO® Luminescent Cell Viability Assay; Promega, Madison, Wis., USA) that measures total cellular adenosine triphosphate (ATP) concentrations as an indicator of cell viability.

HeLa cells = assay: […]-GLO luminescent cell viability assay in HeLa cultures; type: cell-based, human; settings: any concentration tested
Protocol: as §1

[2] = test system: normal human keratinocyte; assay: ATP viability assay in keratinocytes; type: cell-based; settings: any concentration tested
Protocol: Experimental Design. Nontransformed normal human keratinocyte cell cultures were established under normoxic conditions (21% oxygen). […] At the completion of treatment, cells were assessed for viability with an ATP assay and conditioned media were evaluated for VEGF protein levels by ELISA (as described in Section 9.1.1.1).

[3] = test system: soluble VEGF121 and VEGF165 isoforms; assay: ELISA of soluble VEGF production in multiple human tumor cell lines (EC50); type: cell-based; settings: 18 human tumor cell lines
Protocol: Study Design. […] In these experiments, cultures were established under normoxic conditions (21% oxygen). […] Cells requiring induction of VEGF production were incubated under hypoxic conditions (1% oxygen). At the completion of treatment, the conditioned media were collected and assayed by ELISA (as described in Section 9.1.1.1) for soluble VEGF121 and VEGF165 isoforms; results were calculated as percentage inhibition relative to vehicle treated controls. EC50 values were calculated from the dose concentration response curves.

HT1080 xenografts [4] = assay: Dose response assessment in nude mice bearing HT1080 xenografts (tumor and plasma human VEGF, tumor size, trough plasma level); type: in vivo, athymic nude mice
Protocol: Experimental Study Design. HT1080 cells (5×10^6 cells/mouse) were implanted subcutaneously in male athymic nude mice.
Tumor size was measured using calipers at periodic intervals during the study (data shown in Section 9.2.2). […] Mice were sacrificed, and excised tumors were homogenized in buffer containing protease inhibitors. Both terminal intratumoral and pathologic plasma human VEGF levels were measured using an ELISA that recognizes human VEGF121 and VEGF165 (as described in Section 9.1.1.1). Intratumoral VEGF levels were normalized to the total tumor protein concentration, while pathologic plasma human VEGF levels were expressed in pg/mL of plasma.
Experimental Design. The experimental design was reported in Section 9.1.2.2.

[5] = test system: VEGF secreting cell lines; assay: Cell cycle effects in several VEGF secreting human tumor cell lines (PI flow cytometry, Table 25); type: cell-based; settings: all of the tested tumor types; 10 nM or 100 nM, 18 hours
Protocol: Experimental Design. Several VEGF secreting cell lines were assayed for cell cycle effects. […] At the completion of treatment, cells were harvested and cellular DNA content was analyzed via PI staining and flow cytometry (as described in Section 9.3.1.1).

HT1080 spheroids = assay: 3-dimensional growth of HT1080 spheroids (DNA content, BrdU, morphology); type: cell-based, human
Protocol: Experimental Design. HT1080 cells grown as a monolayer were trypsinized and seeded onto a 0.75% agar noble base to prevent the cells from attaching to the bottom of the tissue culture plate and to allow/promote the cells to self-adhere and grow as 3-dimensional spheroids. […] The cells were incubated for 22 and 45 hours at 37° C., in the presence of a 10% CO2 atmosphere. Spheroids were visually checked daily for morphological changes and a medium was replenished two times per week. […] These pulse labeled spheroids were then harvested, washed and trypsinized (triple action solution, Gibco), pelleted and prepared for FACS analysis with a FITC BrdU Flow Kit, (BD Pharmingen). Cells were fixed and permeabilized with paraformadehyde and DNA stained with 7-AAD followed by incubation with an antibody which specifically recognizes […] incorporated into DNA. As described in Section 9.3.1.4. Cells were analyzed and sorted by 7-AAD signal (DNA content) to determine cell cycle phase, and BrdU content (percent actively synthesizing DNA).
Spheroids, prepared as above, were treated with either vehicle alone (0.5% DMSO v/v final) added to the media or a Compounds provided herein (10 nM or 50 nM final concentration) in media to which vehicle has been added.

HT1080 xenografts [6] = assay: BrdU labeling of tumor cells from HT1080 xenografts in vivo; design: species or system athymic nude mice; settings: HT1080 xenografts, 1, 2, or 3 days of treatment
Protocol: Experimental Design. HT1080 cells (5×10^6 cells/mouse) were implanted subcutaneously in male athymic nude mice.
The mice were sacrificed 3 hours later, and the tumors collected. A single cell suspension was prepared from the tumor cells. The cells were permeabilized and an antibody to BrdU was used to stain cells that had entered S phase during the labeling period. The proportion of cells actively synthesizing DNA was determined by cell sorting.

[7] = Oral pharmacokinetics in mice; type: in vivo
Protocol: (§2) The pharmacokinetic evaluations in mice were adjuncts to the primary pharmacodynamic xenograft studies. The evaluations in rats included toxicokinetic assessments in single-dose, 7-day, and 28-day toxicology studies as well as a mass-balance study after a single oral dose of ^14C-Compound #10. The evaluations in dogs included toxicokinetic assessments in 7-day and 28-day toxicology studies. In the studies performed, rodents were dosed once daily with Compound #10 formulated in vehicle and administered via oral gavage.

[8] = Oral pharmacokinetics / toxicokinetics in rats; type: in vivo, Sprague Dawley rats
Protocol: as §2

CYPC19 = target: T1, CYPC19 (Homo sapiens, UniProt P33261); assay: CYP inhibition in human hepatic microsomes or recombinant isoenzymes: CYPC19; type: in vitro ADME
T1 construct: host or cells: human hepatic microsomes or human recombinant isoenzymes
T1 sequence (P33261 whole entry): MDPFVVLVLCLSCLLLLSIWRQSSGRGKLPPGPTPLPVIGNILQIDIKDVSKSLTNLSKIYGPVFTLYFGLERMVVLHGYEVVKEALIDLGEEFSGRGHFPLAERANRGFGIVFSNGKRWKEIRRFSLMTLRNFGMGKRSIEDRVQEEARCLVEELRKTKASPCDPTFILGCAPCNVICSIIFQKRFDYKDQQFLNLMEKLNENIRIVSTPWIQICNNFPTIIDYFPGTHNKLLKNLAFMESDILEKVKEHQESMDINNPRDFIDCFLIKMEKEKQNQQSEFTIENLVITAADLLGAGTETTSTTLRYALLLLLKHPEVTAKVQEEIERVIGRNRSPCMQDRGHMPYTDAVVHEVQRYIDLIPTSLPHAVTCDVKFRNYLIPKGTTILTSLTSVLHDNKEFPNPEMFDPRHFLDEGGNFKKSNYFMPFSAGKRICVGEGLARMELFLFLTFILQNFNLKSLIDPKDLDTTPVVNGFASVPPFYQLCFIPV
Source text: It is possible that in certain clinical trial subjects, such agents may need to be adjusted for dosing or replaced by alternative agents that are not metabolized by CYP2D6, particularly when such agents may have a low therapeutic index.

[9] = test system: Chinese hamster ovary (CHO) cells; assay: Chromosome aberration study in CHO cells; type: cell-based; settings: with and without exogenous metabolic activation
Protocol: (§3) Genotoxicity was assessed in a battery of in vitro and in vivo studies that included a bacterial reverse mutation study, a chromosome aberration study in Chinese hamster ovary (CHO) cells, and a micronucleus study in rats by the oral route. The in vitro studies were performed in the presence and absence of an exogenous metabolic activation system.

[10] = Micronucleus study in rats by the oral route; type: in vivo
Protocol: as §3

Q: Which “decrease in VEGF concentrations in conditioned media” value ([1]; normoxic, 48 hours) does the source give for `COc1ccc(C2c3[nH]c4ccc(Cl)cc4c3CCN2C(=O)Oc2ccc(Cl)cc2)cc1` (racemic) [Compound #10] here?
A: 39%

Q: What about the “inhibition of VEGF production (in words)” value ([1]; stress (hypoxia)-induced VEGF) of the same compound?
A: inhibit stress-induced VEGF production

Q: What about the “cytotoxicity (cell viability, ATP)” value (HeLa cells) of the same compound?
A: No cytotoxicity was observed

Q: What about the “toxicity (viability, ATP assay)” value [2] of the same compound?
A: No toxicity was observed

Q: What about the “EC50 values for cell lines showing VEGF inhibition (in words)” value [3] of the same compound?
A: low nanomolar range

Q: What about the “pathologic human VEGF levels in tumors and in plasma (in words)” value (HT1080 xenografts [4]; all Compound #10 dose groups (0.3 to 10 mg/kg oral), 18 days) of the same compound?
A: significantly suppressed

Q: And the “human VEGF reductions (in words)” value (HT1080 xenografts [4]; all dose levels of >=1 mg/kg BID)?
A: essentially maximal

Q: What about the “antitumor activity, tumor size over time (in words)” value (HT1080 xenografts [4]; dose levels of >=1 mg/kg BID) of the same compound?
A: maximum antitumor activity

Q: What about the “tumor and pathologic plasma human VEGF concentrations (in words)” value (HT1080 xenografts [4]; suboptimal dose of 0.3 mg/kg BID) of the same compound?
A: partial reductions

Q: What about the “cell cycle delay versus inhibition of VEGF production (in words)” value [5] of the same compound?
A: coincident with the inhibition of VEGF production

Q: What about the “percentage of cells that incorporated BrdU (cells in S-phase) (in words)” value (HT1080 spheroids; HT1080 spheroids, 24 or 48 hours) of the same compound?
A: not significantly altered

Q: And the “spheroid morphology (in words)” value (HT1080 spheroids; maintained in the presence of compound for three weeks, data not shown)?
A: no obvious morphological changes

Q: And the “cell cycle distribution of HT1080 spheroids (in words)” value (HT1080 spheroids; treated for 24 hours)?
A: not affected

Q: And the “cell cycle distribution of HT1080 spheroids (in words)” value (HT1080 spheroids; treated for 48 hours)?
A: not affected

Q: And the “BrdU staining of tumor cells (fraction in S phase) (in words)” value (HT1080 xenografts [6])?
A: increased BrdU staining

Q: And the “oral bioavailability (in words)” value [7]?
A: orally bioavailable

Q: What about the “relationship between dose and plasma exposure (in words)” value ([7]; oral) of the same compound?
A: bell-shaped curve

Q: What about the “oral bioavailability (in words)” value [8] of the same compound?
A: orally bioavailable

Q: And the “relationship between dose and plasma exposure (in words)” value ([8]; oral)?
A: bell-shaped curve

Q: What about the “inhibition of CYPC19 (in words)” value (CYPC19) of the same compound?
A: No meaningful inhibition

Q: And the genotoxic effects [9]?
A: no evidence of genotoxic effects

Q: What about the genotoxic effects [10] of the same compound?
A: no evidence of genotoxic effects
